# According to patent publication US20140045809A1, “CORROLES FOR NEUROPROTECTION AND NEURORESCUE” (priority 2008, published 2014):
# Where two headings read alike, the source gives them in different places.
# Legend:
# [1] = system: nigral dopaminergic neurons; conditions: MPTP model, also given post-MPTP; Gal et al., 2005; cited from earlier work
# MAO-A = target: T1, MAO-A (Mus musculus, UniProt Q64133); conditions: Gal et al., 2005, cited from earlier work
# T1 construct: host or cells: brain and peripheral organs of treated animals
# T1 sequence (Q64133 1-526): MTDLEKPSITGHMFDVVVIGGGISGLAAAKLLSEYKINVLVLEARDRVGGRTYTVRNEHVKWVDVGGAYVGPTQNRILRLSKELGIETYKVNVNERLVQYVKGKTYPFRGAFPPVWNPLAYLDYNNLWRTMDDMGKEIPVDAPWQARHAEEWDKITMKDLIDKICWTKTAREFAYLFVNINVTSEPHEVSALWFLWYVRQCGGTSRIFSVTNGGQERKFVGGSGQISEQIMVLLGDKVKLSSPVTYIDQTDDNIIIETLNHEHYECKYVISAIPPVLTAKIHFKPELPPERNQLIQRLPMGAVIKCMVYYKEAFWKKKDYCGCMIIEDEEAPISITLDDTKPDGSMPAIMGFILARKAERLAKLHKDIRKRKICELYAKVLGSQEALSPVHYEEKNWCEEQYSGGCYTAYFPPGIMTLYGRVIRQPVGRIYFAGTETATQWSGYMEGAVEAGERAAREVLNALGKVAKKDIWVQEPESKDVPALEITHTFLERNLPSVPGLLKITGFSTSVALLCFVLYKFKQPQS
# MAO-B = target: T2, MAO-B (Mus musculus, UniProt Q8BW75); conditions: Gal et al., 2005, cited from earlier work
# T2 construct: host or cells: brain and peripheral organs of treated animals
# T2 sequence (Q8BW75 1-520): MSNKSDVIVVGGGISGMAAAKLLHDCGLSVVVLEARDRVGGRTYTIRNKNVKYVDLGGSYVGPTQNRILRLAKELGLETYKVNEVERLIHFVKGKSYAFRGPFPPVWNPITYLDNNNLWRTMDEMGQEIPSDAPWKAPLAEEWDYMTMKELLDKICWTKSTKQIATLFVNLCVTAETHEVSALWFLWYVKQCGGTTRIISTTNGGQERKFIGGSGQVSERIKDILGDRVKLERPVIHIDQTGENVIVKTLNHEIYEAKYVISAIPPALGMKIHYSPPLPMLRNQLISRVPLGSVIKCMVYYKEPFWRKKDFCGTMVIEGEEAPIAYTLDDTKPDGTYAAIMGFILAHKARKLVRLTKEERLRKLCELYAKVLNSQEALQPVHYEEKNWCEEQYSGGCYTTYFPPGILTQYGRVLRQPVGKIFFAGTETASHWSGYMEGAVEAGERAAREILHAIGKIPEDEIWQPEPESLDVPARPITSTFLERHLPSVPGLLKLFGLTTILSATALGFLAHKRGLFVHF
# RIN-m cells [2] = assay: Protection of RIN-m cells against SIN-1 toxicity (MTT); assay type: cell-based, rat; conditions: 10 μM, 30 min before SIN-1 (500 or 600 μM), 24 h
# Procedure: (§1) INS-1E cells or RIN-m cells were cultured in RPMI with low serum content (2% FCS), placed in microtiter plates (96 wells) at a density of 2.5×10^4 cells/well and allowed to attach for 24 h before treatment. Corroles 1C-Fe and 5C-Fe (10 μM) were added 30 min prior to insult with the nitric oxide donor SIN-1 (500 or 600 μM) for a subsequent 24 h period. Cell viability was evaluated by a colorimetric assay for mitochondrial function using 3-(4,5-dimethylthiazol-2-yl)-2,5-diphenyltetrazolium bromide (MTT test), and expressed as percentage of untreated control. Values higher than 100% reflect increased mitochondrial activity induced by the drug. The results represent the mean±SEM of three independent experiments performed under the same conditions.
# Insulin-secreting RIN-m cells were incubated in RPMI with low serum content (2% FCS) and placed in microtiter plates (96 wells) at a density of 2.5×10^4 cells/well and allowed to attach for 24 h before treatment. Cells were treated with corroles 1C-Fe, 1C-Mn or 2C-Mn or porphyrins 1P-Fe or 2P-Mn, in various concentrations (0.1-20 μM), for 30 min prior to insult with SIN-1 (800 μM) for a subsequent 24 h period. Cell viability was evaluated by MTT test and expressed as percentage of untreated control.
# NSC-34 G93A cells = assay: Cell culture model of familial ALS, NSC-34 cells expressing mutant G93A-SOD1; assay type: cell-based, mouse; conditions: 48 h induction; even at a concentration as low as 0.5 μM
# Procedure: Mutant-superoxide dismutase (G93A-SOD1) is associated with familial amyotrophic lateral sclerosis (FALS). A cell culture model of FALS was implemented by stably transfecting mouse motoneuronal NSC-34 cells or SH-SY5Y cells, to express mutant G93A-SOD1 at levels approximating those seen in the human disease. NSC-34 cells or SH-SY5Y cells were incubated in Dulbecco's modified Eagle's/F-12 medium supplemented with 10% FCS tetracycline-free (FCS Tet-free; Clontech), at 37° C. in an atmosphere of 5% CO2 in air. These cell lines are stably transfected with the pTet-ON plasmid (Clontech, Palo Alto, Calif.) coding for the reverse tetracycline controlled transactivator (rtTA). Induction of mutant SOD1 expression was obtained by shifting nonconfluent cultures into growth medium containing 1% N2 supplement (Invitrogen, Carlsbad, Calif.) and […] doxocyclin for 48 h in the presence or absence of corrole 1C-Fe and 5C-Fe.
# SH-SY5Y cells [3] = assay type: cell-based; conditions: 24 h
# Procedure: SH-SY5Y cells were cultured in DMEM-Eagle/F-12(HAM) (1:1) containing 10% FCS. Cells were resuspended in medium containing 2% FCS, seeded in microtiter plates (96 wells) and allowed to attach for 24 h. To examine the neuroprotective effect, cells were pretreated for 30 min with corroles 1C-Fe and 5C-Fe (1-20 μM), and were then exposed to 6-OHDA (60 μM) for further 24 h. For neurorescue assessment, SH-SY5Y cells were first treated with 6-OHDA (60 μM) for 0.5 h, 1.5 h, 3 h and 6 h followed by the addition of compounds 1C-Fe and 5C-Fe (10 μM) for further 24 h.
# SH-SY5Y cells were pretreated with or without corroles 1C-Fe, 2C-Mn and 3C-Mn and porphyrins 1P-Fe and 2P-Mn (20 μM), 30 min before exposure to 6-OHDA (40 μM) for a subsequent 24 h period. Cell viability was evaluated by MTT test and cell death was assessed using the apoptotic cell death detection ELISA kit. For neurorescue, SH-SY5Y cells were first exposed to 40 μM 6-OHDA for 0.5. 1, 1.5 and 3 h, followed by the addition of the compounds 1C-Fe, 2C-Mn and 3C-Mn (20 μM) and incubated for further 24 h. Growth-associated protein (GAP-43) was detected by fluorescence microscopy using a specific primary antibody. Apoptotic nuclei were determined by terminal deoxynucleotidyl transferase-mediated UTP-digoxigenin nick end labeling analysis. 4′,6-Diamidino-2-phenylnidole (DAPI) staining was applied for nuclear labeling. […]
# SH-SY5Y cells [4] = assay type: cell-based
# Procedure: Human neuroblastoma cell line was also examined under conditions similar to RIN-m cells to reveal the corrole's ability to prevent neuronal death caused by oxidative stress. SH-SY5Y cells were plated in microtiter plates (96 wells) in DMEM-Eagle/F-12(HAM) (1:1), containing 10% FCS. To examine neuroprotective effect, SH-SY5Y cells were treated for 30 min with corroles 1C-Fe and 5C-Fe (20 and 50 μM) before addition of 20 μM H2O2 for 24 h. To examine neurorescue, SH-SY5Y cells were first exposed to 20 μM H2O2 for 0.5 h, 1.5 h or 3 h, followed by the addition of corroles 1C-Fe and 5C-Fe (20 μM) and incubation for 24 h.
# Compounds 1C-Fe and 1P-Fe (1-50 μM) were added 30 min before insult with H2O2 (200 μM), followed by a subsequent 24 h period. The neuroprotective effects of the iron corrole 1C-Fe and its structurally analogous iron porphyrin 1P-Fe, against H2O2-induced neurotoxicity were investigated using MTT reduction assay and cell death ELISA, based on the use of mouse monoclonal antibodies to detect free histones and fragmented DNA (F. Hollderieder et al, Biochemica 2002, 1, 25). […] In light of the observed neuroprotective effect of corrole 1C-Fe, we attempted to determine the length of the delay between H2O2 exposure and corrole 1C-Fe treatment that would still afford neuroprotection. H2O2 was administered to SH-SY5Y cells and corrole 1C-Fe was then added for 0.5-1.5 h thereafter. […]
# RIN-m cells [5] = assay: Protection of RIN-m beta cells against H2O2 toxicity (MTT); assay type: cell-based, rat; conditions: 20 μM, 30 min before 35 μM H2O2, 24 h
# Procedure: Two insulin-secreting beta cell lines, rat insulinoma (INS-1E) and RIN-m cells, were used to examine the protective effect of corrole 1C-Fe. The cells were cultured at 37° C., in a humid 5% CO2, 95% air environment in regular RPMI-1640 medium (Invitrogen) supplemented with 5% fetal calf serum (FCS).
# After 2 days of culture, RIN-m cells (5×10^4 cells/well in 96-well plates) were treated with corrole 1C-Fe (1-50 μM) before addition of 35 μM of H2O2. Cell viability was evaluated by a colorimetric assay for mitochondrial function estimation using the MTT test as previously described (Gassen et al., 1998) and expressed as percentage of control.
# RIN-m cells were grown as described in Example 5. After 3 days of culture, RIN-m cells (2.5×10^4 cells/well in 96-well plates) were treated with corroles 1C-Fe or 5C-Fe or porphyrin 1P-Fe (1 and 20 μM), added 30 min prior to treatment with 35 μM H2O2 and further incubated for 24 h. Cell injury was evaluated by MTT test. […] […].
# Protective effect of iron(III) corrole complexes against H2O2-induced toxicity (150 μM) was compared to that of manganese(III) corroles and related porphyrin. […].
# INS-1E cells = assay: Protection of INS-1E cells against SIN-1 toxicity (MTT); assay type: cell-based, rat; conditions: 10 μM, 30 min before SIN-1 (500 or 600 μM), 24 h
# Procedure: as §1
# SH-SY5Y cells [6] = assay: Neuroprotection/neurorescue against SIN-1-induced cell death in SH-SY5Y cells; assay type: cell-based, human; conditions: 24 h (Example 11)
# Procedure: SH-SY5Y cells were cultured in DMEM-Eagle/F-12(HAM) (1:1) containing 10% FCS. Cells were resuspended in medium containing 2% FCS, seeded in microtiter plates (96 wells) and allowed to attach for 24 h before initiation of treatment. […]
Compound,neuroprotection and restoration of nigral dopaminergic neurons [1],MAO-A inhibition (MAO-A; in peripheral organs),MAO-A inhibition (MAO-A; in the brain),MAO-B inhibition (MAO-B; in peripheral organs),MAO-B inhibition (MAO-B; in the brain),protective effect against SIN-1 induced toxicity (MTT) (RIN-m cells [2]),cell viability of induced mutant cells (NSC-34 G93A cells),"neuroprotective effect against 6-OHDA-induced toxicity (SH-SY5Y cells [3]; 1-20 μM, 30 min before 6-OHDA (60 μM))","neurorescue after 6-OHDA insult (SH-SY5Y cells [3]; 6-OHDA (60 μM) for 0.5, 1.5, 3 and 6 h, then 10 μM)","neurorescue after H2O2 insult (SH-SY5Y cells [4]; 20 μM H2O2 for 0.5, 1.5 or 3 h, then 20 μM corrole, 24 h)","neuroprotective effect against H2O2-induced toxicity (SH-SY5Y cells [4]; 20 and 50 μM, 30 min before 20 μM H2O2, 24 h)",protective effect against H2O2 toxicity relative to porphyrin 1P-Fe (MTT) (RIN-m cells [5]),protective effect against SIN-1 induced toxicity (MTT) (INS-1E cells),"neurorescue after SIN-1 insult (SH-SY5Y cells [6]; 20 μM added 0.5, 1.5 or 3 h after insult)","neuroprotective effect against SIN-1 induced toxicity (SH-SY5Y cells [6]; 10 and 20 μM, 30 min pretreatment)"
C#CCN(C)Cc1ccc(O)c2ncccc12 [M-30],neuroprotective and also have the ability to restore nigral dopaminergic neurons when given post-MPTP,poorly,potently inhibits,poorly,potently inhibits,,,,,,,,,,
"O=C(O)CNS(=O)(=O)c1cc2[n]3c1C(c1c(F)c(F)c(F)c(F)c1F)=C1C=CC4=[N+]1[Fe-]31[n]3c(cc(S(=O)(=O)NCC(=O)O)c3-2)C(c2c(F)c(F)c(F)c(F)c2F)=c2ccc([n]21)=C4c1c(F)c(F)c(F)c(F)c1F (stereo not shown) [5C-Fe, 2,17-bis(N-sulfonylglycine)-5,10,15-tris(pentafluoro-phenyl)-corrolato iron(III)]",,,,,,marked protective effect,significantly improved cell viability,dose-dependent neuroprotective effect,instigated neurorescue,instigated neurorescue,dose-dependent neuroprotective effect,exhibit a greater protective effect,marked protective effect,instigated neurorescue,dose-dependent neuroprotective effect
C#CCN[C@@H]1CCc2ccccc21 [rasagiline],neuroprotective and also have the ability to restore nigral dopaminergic neurons when given post-MPTP,,,,,,,,,,,,,,
